Data reported in patent publication US12187662B2, “FOXM1 inhibitor compositions and methods of using the same” (The Board of Trustees of the University of Illinois, priority 2018, dated 2025).
Entries after “also recorded” stand apart in the source; their conditions may differ. Read-outs that look alike come from different tables or passages of the source. Each block holds one molecule with its values, some of them ahead of it.

Assays:
MCF7 cells = assay: Cell proliferation assay (WST-1), MCF7; format: cell-based, human
Protocol: (§1) All cells were tested for mycoplasma using Real-Time PCR Mycoplasma Detection Kit (Akron Biotech, Boca Raton, FL).
(§2) All assays were performed in triplicate.

DT22 cells = assay: Cell proliferation assay (WST-1), DT22; format: cell-based, human
Protocol: as §1, §2

[1] = Pharmacokinetic studies in mice after single s.c. or oral dose; conditions: for half-life / AUC(0-t): female, CD-1, mouse, plasma
Protocol: For s.c. injection, each compound was dissolved in DMSO and then mixed with corn oil for a total injection volume of 100 μL (10% DSMO+90% corn oil) per mouse. For oral gavage, compounds were administered in a 200 μL formulation of 9/0.5/0.5/90 parts of PEG400/Tween80/Povidone/0.5% Carboxymethylcellulose. […] Compounds were quantified by LC-MS/MS at the University of Illinois Metabolomics Core Facility. The data were fitted to a non-compartment model.

MDA-MB-231 cells = assay: Cell proliferation assay (WST-1), MDA-MB-231; format: cell-based, human
Protocol: as §1, §2

[2] = tested on: DT22 triple negative human breast tumor xenografts; assay: DT22 triple negative breast tumor xenografts in NSG mice; format: in vivo, mouse
Protocol: In vivo breast cancer xenograft studies For examination of the growth of triple-negative DT22 breast tumors, intact female NOD/SCID-gamma (NSG) mice were used. DT-22 cells (1×10^6 cells/mouse) were injected s.c. into the right axial mammary gland. Mice received s.c. injection or oral gavage daily or every second or third day, as indicated, with vehicle or FOXM1 inhibitor compound, and tumor growth was monitored over time.

[3] = tested on: FOXM1 target genes in DT22 cells; assay: FOXM1 target gene expression by qRT-PCR, DT22; format: cell-based, human; conditions: DT22, 24 h, at IC50 concentration
Excerpt: RNA was extracted from cells and expression of different genes was monitored by qRT-PCR. Assays were run in triplicate. Values are mean±SEM. *, p<0.05; **, p<0.01; ***, p<0.001. RNA isolation and real-time PCR Total RNA was isolated using TRIzol (Invitrogen) and reverse transcribed using […] reverse transcriptase (New England BioLabs). […] Relative mRNA levels of genes were normalized to the housekeeping gene 36B4, and fold change calculated relative to the vehicle treated samples. Results are the average±SD from at least two independent experiments carried out in triplicate. Primer sequences for the genes studied were obtained from the Harvard Primer Bank. Sequences are available on their website.

[4] = tested on: FOXM1 target genes in MCF7 cells; assay: FOXM1 target gene expression by qRT-PCR, MCF7; format: cell-based, human; conditions: MCF7, 24 h, at IC50 concentration
Protocol: RNA was extracted from cells and expression of different genes was monitored by qRT-PCR. Assays were run in triplicate. Values are mean±SEM. *, p<0.05; **, p<0.01; ***, p<0.001. RNA isolation and real-time PCR Total RNA was isolated using TRIzol (Invitrogen) and reverse transcribed using […] reverse transcriptase (New England BioLabs). Real-time PCR was performed using SYBRgreen PCR Master Mix (Roche) as described (Bergamaschi et al., Breast Cancer Res., 2014, 16:436). Relative mRNA levels of genes were normalized to the housekeeping gene 36B4, and fold change calculated relative to the vehicle treated samples. Results are the average±SD from at least two independent experiments carried out in triplicate. Primer sequences for the genes studied were obtained from the Harvard Primer Bank. Sequences are available on their website.

breast cancer cell lines = assay: Proliferation of breast cancer cell lines (panel, line not specified); format: cell-based, human; conditions: cell line not specified or several lines
Protocol: as §1, §2

[5] = Homo sapiens, MCF7, inhibition of cell proliferation, read-out: IC50 MCF7
[6] = inhibition of cell proliferation, read-out: IC50 MCF7
[7] = Homo sapiens, DT-22, inhibition of cell proliferation
[8] = sc, 40 mg/kg, PK s.c. AUC0-48, mice, 40 mg/kg s.c.
[9] = Homo sapiens, MDA-MB-231, inhibition of cell proliferation, read-out: IC50 MDA-MB-231
[10] = Homo sapiens, MCF7, read-out: IC50 MCF7
[11] = Homo sapiens, MDA-MB-231, read-out: IC50 MDA-MB-231
[12] = sc, 60 mg/kg, PK s.c. AUC0-48, mice, 60 mg/kg s.c.

Molecule: CCN(CC)CCCCCCOc1ccc(C(=C2C3CC4CC(C3)CC2C4)c2ccc(O)cc2)cc1 [NB-41, 4-((E)-((5R,7R)-adamantan-2-ylidene)(4-((6-(diethylamino)hexyl)oxy)phenyl)methyl)phenol]
IC50 (MCF7 cells; [5]): 1500 to 2000 nM
IC50 (MCF7 cells; [6]): 1500 nM
IC50 (DT22 cells; [7]): 1500 to 2000 nM
IC50 (DT22 cells; inhibition of cell proliferation, read-out: IC50 DT-22): 2000 nM
half-life ([1]; po, 40 mg/kg): 15.1 h
AUC(0-t) ([1]; po, 40 mg/kg, PK p.o. AUC0-48, mice, 40 mg/kg p.o.): 5.6 µM·h
half-life ([1]; sc, 40 mg/kg): 22.5 h
AUC(0-t) [1, 8]: 13.3 µM·h

Molecule: CC[N+](C)(CC)CCCCCCOc1ccc(C(c2ccc(OCCCCCC[N+](C)(CC)CC)cc2)=C2C3C[C@H]4C[C@@H](C3)C[C@H]2C4)cc1 [NB-115, 6-(4-(((5r,7r)-adamantan-2-ylidene)(4-((6-(diethyl(methyl)-λ^4-azaneyl)hexyl)oxy)phenyl)methyl)phenoxy)-N,N-diethyl-N-methylhexan-1-aminium diiodide]
Tumor growth in vivo, low doses ([2]; 5 or 10 mg/kg s.c. every second or third day): greatly suppress tumor growth
Growth of DT22-Luc xenograft tumors, low doses ([2]; NB-115 s.c. daily 2 or 6 mg/kg, NB-63 s.c. daily 20 mg/kg until day 20, then 10 mg/kg every other day): suppress the growth; also recorded: effective in suppressing the growth
Animal body weight ([2]; same low-dose regimens as tumor study (FIG. 14B)): do not affect; also recorded: little impact
IC50 (MCF7 cells; [10]): 1100 nM
Expression of ATF3 (gene suppressed by FOXM1) [3]: increased
Expression of FOXM1 stimulated target genes (FOXM1C, AURKB, CCNB1, PLK1) [3]: significantly reduced
half-life ([1]; sc): 25 to 40 h
AUC(0-t) [1, 8]: 746 µM·h
Expression of ATF3 (gene suppressed by FOXM1) [4]: increased
Expression of FOXM1 stimulated target genes (FOXM1C, AURKB, CCNB1, PLK1) [4]: significantly reduced

Molecule: 6-(4-((Z)-((5S,7S)-adamantan-2-ylidene)(4-chlorophenyl)methyl)phenoxy)-N,N-diethylhexan-1-amine [NB-54]
IC50 (MCF7 cells; [6]): 4000 nM
IC50 (MDA-MB-231 cells; inhibition of cell proliferation, read-out: IC50 MDA-MB-231): 4000 nM

Molecule: C[N+]1(CCCCOc2ccc(C(=C3C4CC5CC(C4)CC3C5)c3ccc(OCCCC[N+]4(C)CCCCC4)cc3)cc2)CCCCC1 [NB-86, 1-(4-(4-((E)-((5R,7R)-adamantan-2-ylidene)(4-(4-(1-metheyliumylpiperidin-1-ium-1-yl)butoxy)phenyl)methyl)phenoxy)butyl)-1-methylpiperidin-1-ium diiodide]
IC50 (MCF7 cells; [5]): 1400 nM
IC50 (DT22 cells; [7]): 1900 nM
IC50 (MDA-MB-231 cells; [9]): 1100 nM

Molecule: C[N+]1(CCCCCCCCOc2ccc(C(=C3C4CC5CC(C4)CC3C5)c3ccc(OCCCCCCCC[N+]4(C)CCCCCC4)cc3)cc2)CCCCCC1.[I-].[I-] [NB-81, 1,1′-((((((5r,7r)-adamantan-2-ylidene)methylene)bis(4,1-phenylene))bis(oxy))bis(octane-8,1-diyl))bis(1-methylazepan-1-ium) diiodide]
IC50 (MCF7 cells; [5]): 600 nM
IC50 (DT22 cells; [7]): 1600 nM
Outcome of animals in PK study ([1]; mice, 40 mg/kg s.c adm.): Died at 40 mg/kg s.c adm.

Molecule: c1cc(C(c2ccc(OCCCCCCN3CCCCC3)cc2)=C2[C@H]3C[C@@H]4C[C@@H](C[C@H]2C4)C3)ccc1OCCCCCCN1CCCCC1 [NB-70, 1,1′-((((((5r,7r)-Adamantan-2-ylidene)methylene)bis(4,1-phenylene))bis(oxy))bis(hexane-6,1-diyl))dipiperidine]
IC50 (MCF7 cells; [10]): 700 nM
IC50 (MDA-MB-231 cells; [11]): 900 nM
half-life ([1]; po, 60 mg/kg): 90.9 h
AUC(0-t) ([1]; po, 60 mg/kg, PK p.o. AUC0-48, mice, 60 mg/kg p.o.): 6 µM·h
AUC(0-t) [1, 12]: 10.2 µM·h

Molecule: C[N+]1(CCCCCCOc2ccc(C(c3ccc(OCCCCCC[N+]4(C)CCCCC4)cc3)=C3C4C[C@H]5C[C@@H](C4)C[C@H]3C5)cc2)CCCCC1 [NB-71, 1,1′-((((((5r,7r)-adamantan-2-ylidene)methylene)bis(4,1-phenylene))bis(oxy))bis(hexane-6,1-diyl))bis(1-methylpiperidin-1-ium) diodide]
IC50 (MCF7 cells; [10]): 1100 nM
IC50 (DT22 cells; [7]): 800 nM
IC50 (MDA-MB-231 cells; [11]): 500 nM
half-life ([1]; sc): 25 to 40 h
half-life ([1]; sc, 60 mg/kg): 119 h
AUC(0-t) [1, 12]: 364 µM·h
Blood levels after oral administration ([1]; mice, oral, doses of FIGS. 6A-6B): very low levels
Blood levels after s.c. injection ([1]; mice, s.c., doses of FIGS. 6A-6B): very high blood levels

Further lines, with some results ahead:

IC50 (MCF7 cells; [5]): 3500 nM
IC50 (MDA-MB-231 cells; [9]): < 5000 nM
Molecule: CCN(CC)CCOCCOCCOc1ccc(C(=C2C3CC4CC(C3)CC2C4)c2ccc(OCCOCCOCCN(CC)CC)cc2)cc1 [NB-53, 2,2′-(((((((((5r,7r)-adamantan-2-ylidene)methylene)bis(4,1-phenylene))bis(oxy))bis(ethane-2,1-diyl))bis(oxy))bis(ethane-2,1-diyl))bis(oxy))bis(N,N-diethylethan-1-amine)]

IC50 (MCF7 cells; [5]): 1700 nM
IC50 (MDA-MB-231 cells; [9]): 700 nM
Molecule: C[N+]1(CCCCCOc2ccc(C(=C3C4CC5CC(C4)CC3C5)c3ccc(OCCCCC[N+]4(C)CCCCC4)cc3)cc2)CCCCC1 [NB-88, 1,1′-((((((5r,7r)-adamantan-2-ylidene)methylene)bis(4,1-phenylene))bis(oxy))bis(pentane-5,1-diyl))bis(1-methylpiperidin-1-ium) diiodide]
IC50 (DT22 cells; [7]): 1200 nM

IC50 (MCF7 cells; [5]): 1700 nM
IC50 (MDA-MB-231 cells; [9]): 900 nM
Molecule: C[N+]1(CCCCOc2ccc(C(=C3C4CC5CC(C4)CC3C5)c3ccc(OCCCC[N+]4(C)CCCCCC4)cc3)cc2)CCCCCC1 [NB-87, 1,1′-((((((5r,7r)-adamantan-2-ylidene)methylene)bis(4,1-phenylene))bis(oxy))bis(butane-4,1-diyl))bis(1-methylazepan-1-ium) diiodide]
IC50 (DT22 cells; [7]): 1500 nM

IC50 (MCF7 cells; [5]): 2700 nM
Molecule: c1cc(C(=C2C3CC4CC(C3)CC2C4)c2ccc(OCCCCCCCCN3CCCCCC3)cc2)ccc1OCCCCCCCCN1CCCCCC1 [NB-80, 1,1′-((((((5r,7r)-adamantan-2-ylidene)methylene)bis(4,1-phenylene))bis(oxy))bis(octane-8,1-diyl))bis(azepane)]
IC50 (DT22 cells; [7]): 3400 nM

IC50 (MCF7 cells; [5]): 800 nM
IC50 for inhibition of proliferation of breast cancer cell lines (breast cancer cell lines): submicromolar
PK p.o. AUC0-48 ([1]; mice, 60 mg/kg p.o.): too low to measure
PK s.c. AUC0-48 ([1]; mice, 60 mg/kg s.c.): 6.1 µM·h
PK s.c. t1/2 ([1]; mice, 60 mg/kg s.c.): 45.6 h
Molecule: CN1CCN(CCCCCCOc2ccc(C(=C3C4CC5CC(C4)CC3C5)c3ccc(OCCCCCCN4CCN(C)CC4)cc3)cc2)CC1 [NB-66, 4,4′-((((((5r,7r)-adamantan-2-ylidene)methylene)bis(4,1-phenylene))bis(oxy))bis(hexane-6,1-diyl))bis(1-methylpiperazine)]

IC50 (MCF7 cells; [5]): 1100 nM
Molecule: CC[N+](C)(CCO)CCCCCCOc1ccc(C(=C2C3CC4CC(C3)CC2C4)c2ccc(OCCCCCC[N+](C)(CC)CCO)cc2)cc1 (stereo not drawn) [NB-134, 6,6′-(((((5r,7r)-adamantan-2-ylidene)methylene)bis(4,1-phenylene))bis(oxy))bis(N-ethyl-N-(2-hydroxyethyl)-N-methylhexan-1-aminium) diiodide]
IC50 (DT22 cells; [7]): 1500 nM

IC50 (MCF7 cells; [5]): 600 nM
IC50 (MCF7 cells; [6]): 700 nM
IC50 (MDA-MB-231 cells; [9]): 500 nM
Molecule: C[N+]1(CCCCCOc2ccc(C(=C3C4CC5CC(C4)CC3C5)c3ccc(OCCCCC[N+]4(C)CCCCCC4)cc3)cc2)CCCCCC1 [NB-89, 1,1′-((((((5r,7r)-adamantan-2-ylidene)methylene)bis(4,1-phenylene))bis(oxy))bis(pentane-5,1-diyl))bis(1-methylazepan-1-ium) diiodide]
IC50 (DT22 cells; [7]): 1100 nM
